Test results taken from PMC3954439 (Molecular cancer therapeutics, 2014).

Target: T1, ABCC10 (MRP7) (Homo sapiens, UniProt Q5T3U5)
T1 sequence (Q5T3U5 1-1492): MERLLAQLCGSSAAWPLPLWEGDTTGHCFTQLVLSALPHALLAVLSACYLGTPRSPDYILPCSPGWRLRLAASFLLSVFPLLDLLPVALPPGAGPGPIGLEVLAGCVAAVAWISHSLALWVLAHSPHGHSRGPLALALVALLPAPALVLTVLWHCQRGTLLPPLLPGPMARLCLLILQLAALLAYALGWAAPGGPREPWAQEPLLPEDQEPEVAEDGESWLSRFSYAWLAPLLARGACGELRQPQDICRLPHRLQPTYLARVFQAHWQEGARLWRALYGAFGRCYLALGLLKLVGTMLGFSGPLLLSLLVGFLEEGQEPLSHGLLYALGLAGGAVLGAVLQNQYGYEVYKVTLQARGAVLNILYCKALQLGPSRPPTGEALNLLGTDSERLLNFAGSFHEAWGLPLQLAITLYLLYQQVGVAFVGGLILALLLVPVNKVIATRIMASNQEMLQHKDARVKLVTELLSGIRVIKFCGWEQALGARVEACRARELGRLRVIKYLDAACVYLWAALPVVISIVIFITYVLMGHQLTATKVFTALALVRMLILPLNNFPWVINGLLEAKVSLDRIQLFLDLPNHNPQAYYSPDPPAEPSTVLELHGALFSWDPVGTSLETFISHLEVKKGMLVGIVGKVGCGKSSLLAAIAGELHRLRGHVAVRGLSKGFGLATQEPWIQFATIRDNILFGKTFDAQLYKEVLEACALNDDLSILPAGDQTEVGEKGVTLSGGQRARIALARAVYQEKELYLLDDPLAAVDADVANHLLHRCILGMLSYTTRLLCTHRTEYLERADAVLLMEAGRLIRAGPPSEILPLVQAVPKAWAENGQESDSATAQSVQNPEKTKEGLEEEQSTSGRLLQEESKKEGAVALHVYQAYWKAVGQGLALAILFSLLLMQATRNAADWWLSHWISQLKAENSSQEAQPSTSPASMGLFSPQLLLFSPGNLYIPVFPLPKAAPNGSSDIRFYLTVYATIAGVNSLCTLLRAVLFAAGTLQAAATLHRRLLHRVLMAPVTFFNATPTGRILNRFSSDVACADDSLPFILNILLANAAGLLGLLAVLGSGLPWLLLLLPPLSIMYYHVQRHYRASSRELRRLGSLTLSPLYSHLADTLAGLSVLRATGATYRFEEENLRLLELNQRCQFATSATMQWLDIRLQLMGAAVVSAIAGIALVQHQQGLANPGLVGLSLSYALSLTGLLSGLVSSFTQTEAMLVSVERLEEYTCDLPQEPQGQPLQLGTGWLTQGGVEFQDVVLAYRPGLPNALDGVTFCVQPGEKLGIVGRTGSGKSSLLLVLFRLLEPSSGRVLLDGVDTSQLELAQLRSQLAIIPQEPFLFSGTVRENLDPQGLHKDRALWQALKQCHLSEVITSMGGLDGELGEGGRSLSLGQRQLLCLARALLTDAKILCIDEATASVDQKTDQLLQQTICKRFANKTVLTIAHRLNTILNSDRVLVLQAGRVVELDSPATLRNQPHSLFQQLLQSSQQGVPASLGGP
Assay: [3H]-paclitaxel efflux, HEK293/ABCC10 vs HEK293/pcDNA3.[…] cells
Type: cell-based
Details: labelled compound; 0.01 uM; 37 C; whole cells

CC(=O)O[C@H]1C(=O)[C@@]2(C)[C@H]([C@H](OC(=O)c3ccccc3)[C@]3(O)C[C@H](OC(=O)[C@H](O)[C@@H](NC(=O)c4ccccc4)c4ccccc4)C(C)=C1C3(C)C)[C@]1(OC(C)=O)CO[C@@H]1C[C@@H]2O [[3H]-paclitaxel]
[3H]-paclitaxel efflux, HEK293/ABCC10 vs HEK293/pcDNA3.1 cells: due to active efflux of the [^3H]-paclitaxel via ABCC10
